Values after ≈ are worked out from the molar mass of the structure shown.

The conditions of this data set: buffer; pH 7.4; 200.0 µM.
As to `CC(C)Cc1ccc(S(=O)(=O)Nc2cccnc2)cc1`, the solubility (kinetic) (usually solubility judged after dilution from a stock solution rather than from solid) stood at 14.3 µg/mL (≈ 49.2 µM).
`CNC(=O)c1ccc(NC(=O)CC23CC4CC(CC(C4)C2)C3)cc1`: the solubility (kinetic) stood at 13.8 µg/mL (≈ 42.3 µM).
For `Clc1ccc(-c2ncc3ccccn23)c(Cl)c1`, the kinetic solubility was 22.5 µg/mL (≈ 85.5 µM).
Turning to `COc1cccc(/C=C/C(=O)OCC(=O)NC2CC2)c1OC`, the kinetic solubility came to 24 µg/mL (≈ 78.6 µM).
Then `Cc1cccc(C)c1NC(=O)C(=O)NCCc1c[nH]c2ccccc12`, with 1.3 µg/mL (≈ 3.88 µM).
The molecule `CN(C)c1cccc(C(=O)NCC(c2ccco2)N(C)C)c1` (stereo not drawn) had a solubility (kinetic) greater than 45.2 µg/mL.
Then `O=C(NCc1cccs1)C1CCCN(C(=O)Nc2ccccc2)C1` (stereo not drawn), with 21.7 µg/mL (≈ 63.2 µM); and `Cc1c(NCc2ccccc2O)c(=O)n(-c2ccccc2)n1C`, with greater than 46.4 µg/mL; and `O=C(COC(=O)c1cnccn1)NC(=O)c1ccccc1`, with greater than 42.8 µg/mL.
`CC1(C)NC(=O)N(Cc2cc(=O)n3ccsc3n2)C1=O` showed a kinetic solubility greater than 43.8 µg/mL.
Then `CC(C)c1ccc(NC(=S)NNC(=O)c2cccnc2)cc1`, with greater than 47.2 µg/mL; and `COCc1cc(C)nc2oc(C(=O)c3ccccc3)c(N)c12`, with 8.4 µg/mL (≈ 28.3 µM).
Turning to `O=C(NCc1ccco1)c1ccc(COc2ccccc2[N+](=O)[O-])o1`, the solubility (kinetic) was greater than 51.3 µg/mL.
Then `CCOCCCNC(=O)c1cc2c(=O)n3ccccc3nc2s1`, with 46.4 µg/mL (≈ 140 µM).
For `O=C1NC(=S)N(C(=O)c2ccc(F)cc2)/C1=C/c1cccnc1`, the solubility (kinetic) came to 2 µg/mL (≈ 6.11 µM).
Turning to `C=CCN1CC[C@]23c4c5ccc(O)c4O[C@H]2C(=O)CC[C@@]3(O)[C@H]1C5.Cl`, the kinetic solubility is greater than 54.6 µg/mL.
`C=CCNC(=S)Nc1cc(C)ccn1` gave a kinetic solubility greater than 31.1 µg/mL.
Then `O=C1CN(C(=O)COc2ccc(Cl)cc2Cl)c2ccccc2N1`, with 3.1 µg/mL (≈ 8.83 µM); and `O=C(CS(=O)(=O)c1ccccc1)Nc1cccnc1`, with greater than 41.4 µg/mL; and `COc1cccc(C(=O)OCC(=O)Nc2ccc3c(c2)OCCO3)c1`, with 8 µg/mL (≈ 23.3 µM).
Then `O=C(/C=C/c1c(F)cccc1Cl)Nc1cccnc1`, with 13.7 µg/mL (≈ 49.5 µM); and `Cc1cccc2c3c([nH]c12)CCNC3.Cl`, with greater than 33.4 µg/mL.
`O=C(Cc1ccccc1)Nc1ccc2oc(=O)ccc2c1` returned a kinetic solubility of 39.9 µg/mL (≈ 143 µM).
`CC(C)CCn1c(=O)[nH]c2ccccc21` came in with a solubility (kinetic) greater than 30.6 µg/mL.
Take `Cn1c(=O)oc2cc(S(=O)(=O)Nc3ccccc3F)ccc21`: the kinetic solubility worked out at 15.6 µg/mL (≈ 48.4 µM).
Then `Cc1ccc2[nH]c3c(NCc4ccccc4)ncnc3c2c1`, with 4.4 µg/mL (≈ 15.3 µM).
In the case of `Br.C=CCN1CCc2cccc3c2[C@H]1Cc1ccc(O)c(O)c1-3`, the solubility (kinetic) turned out to be 27.9 µg/mL.
In turn, `Cn1nc(C(=O)NCC(c2cccs2)N2CCOCC2)c2ccccc2c1=O` (stereo not drawn) displayed a solubility (kinetic) greater than 59.8 µg/mL.
On to `O=C1CC(NCc2ccc(F)cc2)C(=O)N1c1ccccc1` (stereo not drawn), for which the solubility (kinetic) came out at 43.6 µg/mL (≈ 146 µM).
The same measure for `O=S(=O)(Nc1cccc2ccccc12)c1cccc2nonc12`: greater than 48.8 µg/mL; for `O=S(=O)(c1ccc2c(c1)CCCN2)N1CCCC1`: greater than 40 µg/mL.
The same measure for `COc1ccc(C(=O)NCCNC(=O)c2ccc(C)nc2)cc1`: greater than 47 µg/mL.
As for `CC(C)(C)NC(=O)C(=O)NC(=O)c1c(F)cccc1Cl`, the kinetic solubility worked out at 36.2 µg/mL (≈ 120 µM).
In the case of `CN1CCN(CCCNc2c(C=O)c(=O)[nH]c3ccccc23)CC1`, the solubility (kinetic) was 34.1 µg/mL (≈ 104 µM).
With `CCOC(=O)c1c2c([nH]c(=S)c1C#N)CCCC2`, the kinetic solubility is 29.5 µg/mL (≈ 112 µM). This solubility kinetic and that of the molecule before are within 1.5-fold of each other.
Then `CC1CCCN(C(=O)COC(=O)c2cc(Br)ccc2O)C1` (stereo not drawn), with 40.1 µg/mL (≈ 113 µM).
Regarding `O=C(Nc1nnc(C2=COCCO2)o1)c1ccc(F)cc1`, the solubility (kinetic) is greater than 43.7 µg/mL.
As to `CCN(CC)S(=O)(=O)c1ccc(N2CCOCC2)c(NC(=O)c2ccc(=O)[nH]c2)c1`, the kinetic solubility is greater than 65.2 µg/mL.
The molecule `Cc1cc(NC(=O)C2CC(=O)N(c3ccccc3C)C2)no1` (stereo not drawn) returned a kinetic solubility greater than 44.9 µg/mL.
Turning to `CCSCc1nc(N)nc(NCCc2ccccc2)n1`, the kinetic solubility stood at 34.7 µg/mL (≈ 120 µM).
Then `O=C(Nc1cccnc1)c1ccc(Cl)c(Cl)c1`, with 40 µg/mL (≈ 150 µM); and `Cc1cc(Nc2ccc([N+](=O)[O-])cc2)c2ccccc2n1`, with 0.6 µg/mL (≈ 2.15 µM); and `Cc1ccc(NC(=O)CN2C(=S)NC(C)(C)CC2C)cc1Cl` (stereo not drawn), with 8.2 µg/mL (≈ 24.1 µM).
Then `OCCN1CCOCCOc2ccccc2OCCOCC1`, with greater than 46.7 µg/mL; and `NC(CO)(CO)CO.O=C(c1ccccc1)c1ccc2n1CCC2C(=O)O` (stereo not drawn), with greater than 56.5 µg/mL; and `N#C/C(=C\c1ccccc1)C(=O)Nc1ccccn1`, with greater than 37.4 µg/mL.
Then `S=C(c1ccc(-c2ccc(Cl)cc2Cl)o1)N1CCCC1`, with less than 0.7 µg/mL.
As for `O=C(Nc1ccccc1)c1cccc2c(Br)cccc12`, the solubility (kinetic) was less than 0.7 µg/mL.
Then `N#Cc1c(-c2ccco2)ccn(Cc2cccc(F)c2)c1=O`, with 3.2 µg/mL (≈ 10.9 µM).
In turn, `COC(=O)C1CCN(C(=O)COC(=O)c2ccc(N3CCCC3=O)cc2)CC1` showed a kinetic solubility greater than 58.3 µg/mL.
Take `O=C(NC1CCCCC1)C1CC(=O)N(c2cccc([N+](=O)[O-])c2)C1` (stereo not drawn): the kinetic solubility turned out to be 7.8 µg/mL (≈ 23.5 µM).
As for `O=C(CN1CCC(NC(=O)Nc2ccccc2)CC1)Nc1ccccc1F`, the kinetic solubility turned out to be 17.5 µg/mL (≈ 47.2 µM).
Then `COc1ccc(C2C(C#N)=C(N)Oc3cc(N)ccc32)cc1` (stereo not drawn), with 27.4 µg/mL (≈ 93.4 µM).

The values are drawn from PubChem BioAssay AID1996.
